Measurements reported in patent US20260266803A1, “Induced Pluripotent Stem Cell Model of Fibrous Dysplasia/Mccune-Albright Syndrome and Methods of Use” (The Regents of the University of California, priority 2023, published 2026).

Tested on: GNAS^R201H iPSCs
Assay: cAMP in iPSCs stimulated with the β-adrenergic receptor agonist isoproterenol
Type: cell-based, human
Details: 10 μM isoproterenol, N=6 in two different iPSC lines
Procedure: FIGS. 3A-3C. […] Representative of n=3. (FIG. 3B) Representative western blot of pluripotent and differentiated (DDX) iPSCs showing increased pCREB and pATF1, consistent with activation of the cAMP pathway. […] N=6 in two different iPSC lines.
Initial screens with a single dose (50 μM) in our GNAS iPSCs identified several compounds with potential as molecular tools ([…].B). We found candidates that inhibited Gsα^R201H but not WT (#46, 47, 43, 2). […] While not desirable for treating FD/MAS or GNAS hyperactivation, these may be useful for treating diseases of GNAS loss of function (e.g., Albright's hereditary osteodystrophy).

For `CC(C)NCC(O)c1ccc(O)c(O)c1` (stereo not shown) [isoproterenol], which “differences in cAMP from baseline” value is on record?
Its value is “increased differences in cAMP from baseline”.
